Source: PMC9729869, “Functional verification and characterization of a type-III geranylgeranyl diphosphate synthase gene from Sporobolomyces pararoseus NGR” (Frontiers in Microbiology, 2022)

Biological target: T1, CrtE (geranylgeranyl diphosphate synthase, GGPPS) (Sporobolomyces pararoseus, UniProt A0A2P1HA31)
T1 construct: dimer only in the predicted model
Test: TLC of dephosphorylated product (GGOH)
Type: biochemical

T1 sequence (A0A2P1HA31 1-377): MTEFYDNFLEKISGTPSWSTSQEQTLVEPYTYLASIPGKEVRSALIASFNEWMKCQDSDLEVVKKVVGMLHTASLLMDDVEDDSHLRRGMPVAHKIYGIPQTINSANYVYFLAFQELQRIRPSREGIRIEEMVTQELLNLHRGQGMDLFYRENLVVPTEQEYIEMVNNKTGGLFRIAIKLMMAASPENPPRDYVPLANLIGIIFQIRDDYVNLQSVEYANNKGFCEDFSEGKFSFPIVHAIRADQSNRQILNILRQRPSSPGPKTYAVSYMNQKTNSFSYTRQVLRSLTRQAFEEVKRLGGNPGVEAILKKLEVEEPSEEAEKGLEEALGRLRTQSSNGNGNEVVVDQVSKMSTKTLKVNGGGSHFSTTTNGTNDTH

Row | SMILES | TLC of dephosphorylated product (GGOH) (50 uM FPP, 50 uM IPP, 10 ng CrtE in 200 uL, 100 mM HEPES with 5 mM MgCl2 (enzyme exchange buffer) pH 7.5, 28 C, 2 h, Trx/His/S tags kept) | TLC of dephosphorylated product (GGOH) (50 uM IPP with 50 uM allylic co-substrate (FPP, GPP or DMAPP), else same)
1 | CC(C)=CCC/C(C)=C/CC/C(C)=C/COP(=O)(O)OP(=O)(O)O [FPP, farnesyl diphosphate] | largest number of GGPP was produced using FPP | 
2 | C=C(C)CCOP(=O)(O)OP(=O)(O)O [IPP, isopentenyl diphosphate] |  | using three different allylic substrates and IPP as substrates for the reaction
